Experiments:
[1] = Plasma stability in mouse plasma assessed as compound remaining at 500 uM measured after 8 hrs by LC-MS/MS analysis relative to control; format: ADME, cell-free; details: read-out: Stability
[2] = Toxicity in female BALB/c mouse xenografted with human Huh-7 cells assessed as pathological change in kidney tissue at 1 mg/kg, iv followed by irradiated with 2 Gy for 2 consecutive days, once a week for 3 weeks measured on day 22; format: organism-based; details: in vivo, 528 h, time 22 day
[3] = Toxicity in female BALB/c mouse xenografted with human Huh-7 cells assessed as pathological change in lung tissue at 1 mg/kg, iv followed by irradiated with 2 Gy for 2 consecutive days, once a week for 3 weeks measured on day 22; format: organism-based; details: in vivo, 528 h, time 22 day
LX-2 = assay: Antiproliferative activity against GPC3-negative human LX-2 cells assessed as cytotoxicity measured after 72 hrs by MTT assay; format: functional, cell-based; details: LX-2, 72 h
[4] = Plasma stability in human plasma assessed as compound remaining at 500 uM measured after 8 hrs by LC-MS/MS analysis relative to control; format: ADME, cell-free; details: read-out: Stability
[5] = Toxicity in female BALB/c mouse xenografted with human Huh-7 cells assessed as pathological change in lung tissue at 2 mg/kg, iv total 4 doses measured on day 17 by hematoxylin and eosin (H and E) staining analysis; format: organism-based; details: in vivo, 408 h, time 17 day
[6] = Toxicity in female BALB/c mouse xenografted with human Huh-7 cells assessed as pathological change in spleen tissue at 2 mg/kg, iv total 4 doses measured on day 17 by hematoxylin and eosin (H and E) staining analysis; format: organism-based; details: in vivo, 408 h, time 17 day
HeLa = assay: Antiproliferative activity against GPC3-negative human HeLa cells assessed as cytotoxicity measured after 72 hrs by MTT assay; format: functional, cell-based
[7] = Toxicity in female BALB/c mouse xenografted with human Huh-7 cells assessed as pathological change in kidney tissue at 2 mg/kg, iv total 4 doses measured on day 17 by hematoxylin and eosin (H and E) staining analysis; format: organism-based; details: in vivo, 408 h, time 17 day
[8] = Toxicity in female BALB/c mouse xenografted with human Huh-7 cells assessed as body weight change at 1 mg/kg, iv followed by irradiated with 2 Gy for 2 consecutive days, once a week for 3 weeks measured on day 22; format: organism-based; details: in vivo, 528 h, time 22 day
[9] = Toxicity in female BALB/c mouse xenografted with human Huh-7 cells assessed as body weight change at 0.5 to 2 mg/kg, iv total 4 doses measured on day 17; format: organism-based; details: in vivo, 408 h, dose 0.5-2 mg/kg, time 17 day
[10] = Toxicity in female BALB/c mouse xenografted with human Huh-7 cells assessed as pathological change in liver tissue at 1 mg/kg, iv followed by irradiated with 2 Gy for 2 consecutive days, once a week for 3 weeks measured on day 22; format: organism-based; details: in vivo, 528 h, time 22 day
Hep 3B2 = assay: Antiproliferative activity against GPC3-positive human Hep3B cells assessed as cytotoxicity measured after 72 hrs by MTT assay; format: functional, cell-based
[11] = Stability in PBS at 500 uM measured up to 48 hrs by LC-MS/MS analysis; format: physicochemical; details: buffer
Huh-7 = assay: Antiproliferative activity against GPC3-positive human Huh-7 cells assessed as cytotoxicity measured after 72 hrs by MTT assay; format: functional, cell-based; details: Huh-7, 72 h
[12] = Plasma stability in human plasma assessed as compound remaining at 500 uM measured after 48 hrs by LC-MS/MS analysis relative to control; format: ADME, cell-free; details: read-out: Stability
[13] = Toxicity in female BALB/c mouse xenografted with human Huh-7 cells assessed as pathological change in liver tissue at 2 mg/kg, iv total 4 doses measured on day 17 by hematoxylin and eosin (H and E) staining analysis; format: organism-based; details: in vivo, 408 h, time 17 day
[14] = Plasma stability in mouse plasma assessed as half life at 500 uM by LC-MS/MS analysis; format: ADME, cell-free
[15] = Plasma stability in human plasma assessed as half life at 500 uM by LC-MS/MS analysis; format: ADME, cell-free
[16] = Toxicity in female BALB/c mouse xenografted with human Huh-7 cells assessed as pathological change in heart tissue at 2 mg/kg, iv total 4 doses measured on day 17 by hematoxylin and eosin (H and E) staining analysis; format: organism-based; details: in vivo, 408 h, time 17 day
Cathepsin B = Cathepsin B (Homo sapiens, UniProt P07858); assay: Drug metabolism assessed as human cathepsin B-mediated monomethyl auristatin E release in HEK293 cells at pH 5.5 buffer measured after 30 mins by LC-MS/MS analysis; format: ADME, cell-based; details: hek293, pH 5.5, 0.5 h
[17] = Toxicity in female BALB/c mouse xenografted with human Huh-7 cells assessed as pathological change in spleen tissue at 1 mg/kg, iv followed by irradiated with 2 Gy for 2 consecutive days, once a week for 3 weeks measured on day 22; format: organism-based; details: in vivo, 528 h, time 22 day
[18] = Toxicity in female BALB/c mouse xenografted with human Huh-7 cells assessed as pathological change in heart tissue at 1 mg/kg, iv followed by irradiated with 2 Gy for 2 consecutive days, once a week for 3 weeks measured on day 22; format: organism-based; details: in vivo, 528 h, time 22 day

remaining at 8 h, 500 µM [1]: 19.9%
remaining at 8 h, 500 µM [4]: 57.2%
Stability [11]: Stable
remaining at 48 h, 500 µM [12]: 25.3%
half-life at 500 µM [14]: 240 min
half-life at 500 µM [15]: 528 min
Drug metabolism (Cathepsin B): metabolite_detected
Structure (SMILES): CC[C@H](C)[C@@H]([C@@H](CC(=O)N1CCC[C@H]1[C@H](OC)[C@@H](C)C(=O)N[C@H](C)[C@@H](O)c1ccccc1)OC)N(C)C(=O)[C@@H](NC(=O)[C@H](C(C)C)N(C)C(=O)OCc1ccc(NC(=O)[C@H](CCCNC(N)=O)NC(=O)[C@@H](NC(=O)CCCCCN2C(=O)CC(SC[C@H](N)C(=O)N[C@@H](CO)C(=O)N[C@@H](CC(N)=O)C(=O)N[C@@H](CC(=O)O)C(=O)N[C@@H](CCCNC(=N)N)C(=O)N3CCC[C@H]3C(=O)N3CCC[C@H]3C(=O)N[C@@H](CC(N)=O)C(=O)N[C@H](C(=O)N[C@@H](CC(C)C)C(=O)N[C@@H](CCC(N)=O)C(=O)N[C@@H](CCCCN)C(=O)N[C@@H](CCCNC(=N)N)C(N)=O)[C@@H](C)CC)C2=O)C(C)C)cc1)C(C)C (stereo partly drawn)
Activity [2]: Non-toxic
Activity [3]: Non-toxic
IC50 (LX-2): > 100 nM
Activity [5]: Non-toxic
Activity [6]: Non-toxic
IC50 (HeLa): > 100 nM
Activity [7]: Non-toxic
Activity [8]: Non-toxic
Activity [9]: Non-toxic
Activity [10]: Non-toxic
IC50 (Hep 3B2): 12.2 nM
IC50 (Huh-7): 1.91 nM
Activity [13]: Non-toxic
Activity [16]: Non-toxic
Activity [17]: Non-toxic
Activity [18]: Non-toxic
